According to PubChem BioAssay AID256 (DTP/NCI, 2004):
Where “and” joins values, the source holds several entries; their conditions need not be identical. Equal values may be shown once. Toxic doses and inconclusive results are not listed.

Test system: CD2F1 mice, L1210 leukemia ip, survival T/C
Assay: NCI In Vivo Anticancer Drug Screen. Data for tumor model L1210 Leukemia (intraperitoneal) in CD2F1 (CDF1) mice
Conditions: higher = longer survival
Outline: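 Tumor-bearing mice (transplanted tumor) were split into treated and vehicle control groups, and the measured endpoint of each treated group was divided by that of its vehicle controls.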

[1] = endpoint: mean survival time, dose: 50.0 mg/kg/injection, schedule: Q01DX009 (ip), vehicle: saline with Tween-80
[2] = endpoint: mean survival time, dose: 100.0 mg/kg/injection, schedule: Q04DX003 (ip), vehicle: saline with Tween-80
[3] = endpoint: mean survival time, dose: 200.0 mg/kg/injection, schedule: Q04DX003 (ip), vehicle: saline with Tween-80
[4] = endpoint: mean survival time, dose: 400.0 mg/kg/injection, schedule: Q04DX003 (ip), vehicle: saline with Tween-80
[5] = endpoint: mean survival time, dose: 100.0 mg/kg/injection, schedule: Q01DX009 (ip), vehicle: saline with Tween-80
[6] = endpoint: mean survival time, dose: 200.0 mg/kg/injection, schedule: Q01DX009 (ip), vehicle: saline with Tween-80
[7] = endpoint: mean survival time, dose: 400.0 mg/kg/injection, schedule: Q01DX009 (ip), vehicle: saline with Tween-80
[8] = endpoint: mean survival time, dose: 100.0 mg/kg/injection, schedule: Q01DX009 (ip), vehicle: saline
[9] = endpoint: mean survival time, dose: 200.0 mg/kg/injection, schedule: Q01DX009 (ip), vehicle: saline
[10] = endpoint: mean survival time, dose: 100.0 mg/kg/injection, schedule: Q04DX003 (ip), vehicle: saline
[11] = endpoint: mean survival time, dose: 200.0 mg/kg/injection, schedule: Q04DX003 (ip), vehicle: saline
[12] = endpoint: mean survival time, dose: 100.0 mg/kg/injection, schedule: Q01DX001 (ip), vehicle: saline
[13] = endpoint: mean survival time, dose: 200.0 mg/kg/injection, schedule: Q01DX001 (ip), vehicle: saline
[14] = endpoint: mean survival time, dose: 400.0 mg/kg/injection, schedule: Q01DX001 (ip), vehicle: saline

SMILES: O=C(/C=C\C=C\c1ccc2c(c1)OCO2)N1CCCCC1
- T/C (endpoint: mean survival time, dose: 12.5 mg/kg/injection, schedule: Q01DX009 (ip), vehicle: saline with Tween-80): 111 % of control
- T/C (endpoint: mean survival time, dose: 25.0 mg/kg/injection, schedule: Q01DX009 (ip), vehicle: saline with Tween-80): 107 % of control
- T/C [1]: 104 % of control

SMILES: Cc1n(Cc2ccc(Cl)cc2Cl)cc[n+]1Cc1ccccc1
- T/C (endpoint: mean survival time, dose: 10.0 mg/kg/injection, schedule: Q04DX003 (ip), vehicle: Klucel (hydroxypropylcellulose) (HPC)): 100 % of control
- T/C (endpoint: mean survival time, dose: 20.0 mg/kg/injection, schedule: Q04DX003 (ip), vehicle: Klucel (hydroxypropylcellulose) (HPC)): 105 % of control
- T/C (endpoint: mean survival time, dose: 40.0 mg/kg/injection, schedule: Q04DX003 (ip), vehicle: Klucel (hydroxypropylcellulose) (HPC)): 92 % of control

SMILES: Brc1ccc2c(c1)CCCC2
- T/C [2]: 95 % of control
- T/C [3]: 103 % of control
- T/C [4]: 93 % of control

SMILES: Cc1cc(=S)n(C)c2ccccc12
- T/C [5]: 94 % of control
- T/C [2]: 93 % of control
- T/C [6]: 93 % of control
- T/C [3]: 96 % of control
- T/C [7]: 98 % of control
- T/C [4]: 88 % of control

SMILES: Oc1c(Cl)c(Cl)c(O)c(Cl)c1Cl
- T/C (endpoint: mean survival time, dose: 6.25 mg/kg/injection, schedule: Q01DX001 (ip), vehicle: saline with Tween-80): 98 % of control
- T/C (endpoint: mean survival time, dose: 12.5 mg/kg/injection, schedule: Q01DX001 (ip), vehicle: saline with Tween-80): 95 % of control
- T/C (endpoint: mean survival time, dose: 25.0 mg/kg/injection, schedule: Q01DX001 (ip), vehicle: saline with Tween-80): 95 % of control

SMILES: COc1cc(C(C)=O)cc([N+](=O)[O-])c1O
- T/C [1]: 102 % of control
- T/C [5]: 91 % of control

SMILES: O=C(NCCI)NC1C(O)OC(CO)C(O)C1O (stereo not given)
- T/C (endpoint: mean survival time, dose: 12.5 mg/kg/injection, schedule: Q01DX009 (ip), vehicle: water): 93 % of control
- T/C (endpoint: mean survival time, dose: 25.0 mg/kg/injection, schedule: Q01DX009 (ip), vehicle: water): 92 % of control
- T/C (endpoint: mean survival time, dose: 50.0 mg/kg/injection, schedule: Q01DX009 (ip), vehicle: water): 93 % of control
- T/C (endpoint: mean survival time, dose: 100.0 mg/kg/injection, schedule: Q01DX009 (ip), vehicle: water): 95 % of control
- T/C (endpoint: mean survival time, dose: 200.0 mg/kg/injection, schedule: Q01DX009 (ip), vehicle: water): 89 % of control

SMILES: CCOC(=O)/C=C\C1=CCCC1
- T/C (endpoint: mean survival time, dose: 50.0 mg/kg/injection, schedule: Q01DX009 (ip), vehicle: saline): 102 % of control
- T/C [8]: 98 % of control
- T/C [9]: 102 % of control

SMILES: CC(C)(CNC1=NCCO1)NC1=NCCO1
- T/C [10]: 104 % of control
- T/C [11]: 104 % of control

SMILES: CCCNC(C)=O
- T/C [10]: 97 % of control
- T/C [11]: 97 % of control
- T/C (endpoint: mean survival time, dose: 400.0 mg/kg/injection, schedule: Q04DX003 (ip), vehicle: saline): 100 % of control

SMILES: O=C(C1CC=C2c3ccccc3CCC2C1C(=O)N1CCCCC1)N1CCCCC1 (stereo not given)
- T/C (endpoint: mean survival time, dose: 75.0 mg/kg/injection, schedule: Q01DX001 (ip), vehicle: saline): 104 % of control
- T/C (endpoint: mean survival time, dose: 150.0 mg/kg/injection, schedule: Q01DX001 (ip), vehicle: saline): 98 % of control
- T/C (endpoint: mean survival time, dose: 300.0 mg/kg/injection, schedule: Q01DX001 (ip), vehicle: saline): 107 % of control

SMILES: O=c1cn[nH]c2cc(Cl)ccc12
- T/C [5]: 91 % of control
- T/C [2]: 100 % of control
- T/C [6]: 101 % of control
- T/C [3]: 105 % of control
- T/C [7]: 92 % of control
- T/C [4]: 97 % of control

SMILES: CC1(C)C=Cc2ccccc21
- T/C [1]: 113 % of control
- T/C [5]: 113 % of control

SMILES: O=c1ccn(Cc2cccc([N+](=O)[O-])c2)c(=O)[nH]1
- T/C [5]: 106 % of control
- T/C [6]: 104 % of control
- T/C [7]: 102 % of control

SMILES: OCC1OC(n2c(SCc3ccccc3)nc3ccccc32)C(O)C1O (stereo not given)
- T/C [12]: 102 % of control
- T/C [13]: 102 % of control
- T/C [14]: 97 % of control

SMILES: CC(=O)OC/C=C(C)/C=C/C=C(C)/C=C/C1=C(C)CCCC1(C)C
- T/C (endpoint: mean survival time, dose: 200.0 mg/kg/injection, schedule: Q01DX001 (ip), vehicle: steriod suspending solution): 96 % of control
- T/C (endpoint: mean survival time, dose: 200.0 mg/kg/injection, schedule: Q01DX009 (ip), vehicle: steriod suspending solution): 96 % of control
- T/C (endpoint: mean survival time, dose: 400.0 mg/kg/injection, schedule: Q01DX001 (ip), vehicle: steriod suspending solution): 102 % of control
- T/C (endpoint: mean survival time, dose: 400.0 mg/kg/injection, schedule: Q01DX009 (ip), vehicle: steriod suspending solution): 93 % of control
- T/C (endpoint: mean survival time, dose: 800.0 mg/kg/injection, schedule: Q01DX001 (ip), vehicle: steriod suspending solution): 92 % of control
- T/C (endpoint: mean survival time, dose: 800.0 mg/kg/injection, schedule: Q01DX009 (ip), vehicle: steriod suspending solution): 86 % of control
- T/C (endpoint: mean survival time, dose: 1600.0 mg/kg/injection, schedule: Q01DX001 (ip), vehicle: steriod suspending solution): 92 % of control

SMILES: CCC1(OC(=O)CN2CCN(CCCO)CC2)C(=O)OCc2c1cc1n(c2=O)Cc2cc3ccccc3nc2-1 (stereo not given)
- T/C (endpoint: median survival time, dose: 6.25 mg/kg/injection, schedule: Q04DX002 (ip), vehicle: water): 106 % of control
- T/C (endpoint: median survival time, dose: 12.5 mg/kg/injection, schedule: Q04DX002 (ip), vehicle: water): 107 % of control and 108 % of control
- T/C (endpoint: median survival time, dose: 25.0 mg/kg/injection, schedule: Q04DX002 (ip), vehicle: water): 121 % of control and 111 % of control
- T/C (endpoint: median survival time, dose: 50.0 mg/kg/injection, schedule: Q04DX002 (ip), vehicle: water): 120 % of control
- T/C (endpoint: median survival time, dose: 100.0 mg/kg/injection, schedule: Q04DX002 (ip), vehicle: water): 170 % of control

SMILES: CCc1ccccc1OCC1CO1 (stereo not given)
- T/C [12]: 102 % of control
- T/C [13]: 100 % of control
- T/C [14]: 102 % of control

SMILES: COC(=O)C(N)CSCc1ccccc1 (stereo not given)
- T/C [12]: 100 % of control
- T/C [8]: 102 % of control
- T/C [9]: 97 % of control
- T/C [14]: 100 % of control
- T/C (endpoint: mean survival time, dose: 400.0 mg/kg/injection, schedule: Q01DX009 (ip), vehicle: saline): 98 % of control
